In general, IC50 refers to the concentration that gives 50% inhibition. The EC50 is the concentration needed to bring the measured effect to its halfway point.

Counter-ions that a name gives are not always drawn. Like-named read-outs stand apart in the source and are kept apart here.

One data set deals with mice. Description: Tolerance after intravenous administration to mice. Type of data set: in vivo. As to conditions: 30 mg/kg intravenous, three mice.
The next data set deals with Human Thrombocytes. The experiment in a line: Fibrinogen binding to human thrombocytes (fibrinogen binding test). The method, then: 1. Fibrinogen Binding to Human Thrombocytes The blood obtained by puncturing an antecubital vein is anticoagulated with trisodium citrate (final concentration: 13 mM) and centrifuged for 10 minutes at 170× g. The supernatant platelet-rich plasma is poured onto a Sepharose 2B column (Pharmacia) and eluted with a solution of 90 mM common salt, 14 mM trisodium citrate, 5 mM glucose and 50 mM tris(hydroxymethyl)aminomethane, adjusted to pH 7.4. The gel-filtered platelets (GFP) appearing before the plasma proteins are used for the binding experiments. 50 μl of a 60 mM calcium chloride solution, 50 μl of a 0.6 mM adenosine diphosphate solution, 100 μl of substance solution or solvent and 50 μl of fibrinogen solution (containing 3 μg of ^125 fibrinogen) are added to 750 μl of GFP and incubated for 20 minutes at ambient temperature. The non-specific binding is determined in the presence of 3 mg/ml of cold fibrinogen. 900 μl of the incubated material are carefully pipetted onto 250 μl of silicon oil (AP 38: AR 20, 1:2 v/v, Wacker Chemie) in Eppendorf tubes and centrifuged for 2 minutes at 10,000× g. The aqueous supernatant and some of the oil are drawn off, the tips of the tubes are cut off together with the platelet pellet and the quantity of bound fibrinogen is determined in a gamma counter. The concentration of substance which brings about a 50% inhibition in fibrinogen binding is determined from a series of concentrations and is given as the IC50 value. | *^125 I fibrogen was replaced by […] |e.

Data set [1] deals with platelet aggregation (platelet-rich plasma). The experiment in a line: Antithrombotic activity: inhibition of collagen-induced platelet aggregation in platelet-rich plasma (Born and Cross). As to conditions: 50% change in optical density, human platelet-rich plasma, 10 min preincubation. Type of data set: cell-based, human (healthy volunteers). The method, then:
2. Antithrombotic Activity Method The thrombocyte aggregation is measured using the Born and Cross method (J. Physiol. 170:397 (1964)) in platelet-rich plasma taken from healthy volunteers. To inhibit coagulation the blood is mixed with 3.14% sodium citrate in a ratio by volume of 1:10. Collagen-induced aggregation The pattern of the decrease in optical density of the platelet suspension is photometrically measured and recorded after the addition of aggregation-triggering substance. The rate of aggregation is concluded from the angle of inclination of the density curve. The point on the curve where there is maximum light transmittance is used to calculate the optical density. The amount of collagen used is as small as possible but sufficient to produce an irreversible reaction curve. Standard commercial collagen produced by Hormonchemie of Munich is used. Before the addition of the collagen the plasma is incubated for 10 minutes with the substance at […]. From the measurements obtained an EC50 is determined graphically, indicating a 50% change in the optical density in terms of the inhibition of aggregation.

Setting [2] is: 125I fibrinogen, 50% inhibition of fibrinogen binding, gel-filtered human platelets, ADP, 20 min ambient temperature, read-out: Fibrinogen binding test IC50.
The mark [3] stands for this setting: *: 125I fibrinogen replaced by 3H-(3S,5S)-5-[(amidino-biphenylyl)-oxymethyl]-carboxymethyl-pyrrolidinone ligand, read-out: Fibrinogen binding test IC50 (values marked *).

With `Cn1c(-c2ccc(C(=N)N)cc2)nc2cc(C(=O)NCCC(=O)O)ccc21` [Example 1(3), 2-(4-amidino-phenyl)-5-[(2-carboxy-ethyl)-aminocarbonyl]-1-methyl-benzimidazole], in the data set on mice, the “deaths after intravenous administration” value was “no animals died”. Also, the IC50 at Human Thrombocytes (setting [2]) amounted to 37 nM. Besides, the EC50 in data set [1] was determined as 70 nM.
Consider `N=C(N)c1ccc(-c2nc3cc(C(=O)NCCC(=O)OCC4CCCCC4)ccc3n2CCCCc2ccccc2)cc1` [13(6), 2-(4-amidino-phenyl)-5-[(2-cyclohexylmethyloxy-carbonyl-ethyl)-aminocarbonyl]-1-(4-phenyl-butyl)-benzimidazole dihydrochloride], for which the IC50 on Human Thrombocytes (setting [3]) turned out to be 130 nM. In data set [1], a half-maximal effect (EC50) was put at 980 nM.
For `Cn1c(-c2ccc(C(=N)N)cc2)nc2cc(C(=O)NCCC(=O)O)cnc21` [17(13), 2-(4-amidino-phenyl)-6-[(2-carboxy-ethyl)-aminocarbonyl]-3-methyl-imidazo[4,5-b]pyridine-dihydrobromide] the same measures were 20 nM and 40 nM.
In the same order, the values of `CN(CC(=O)O)c1cc2c(cc1C(=O)NCCC(=O)O)nc(-c1ccc(C(=N)N)cc1)n2C` [1(140), 2-(4-amidino-phenyl)-5-[(2-carboxy-ethyl)-aminocarbonyl]-6-(N-carboxymethyl-methylamino)-1-methyl-benzimidazole] are 220 nM and 750 nM.
As for `N=C(N)c1ccc(-c2nc3cc(NC(=O)CCC(=O)O)ccc3[nH]2)cc1` [1(1), 2-(4-amidino-phenyl)-5(6)-[(2-carboxy-ethyl)-carbonyl-amino]-benzimidazole], the IC50 on Human Thrombocytes (setting [2]) was 600 nM. For the same compound, the EC50 in data set [1] turned out to be 6600 nM.

These data come from patent publication US5434150A, “Condensed 5-membered heterocyclic compounds, processes for preparing them and pharmaceutical preparations containing these compounds” (Dr. Karl Thomae GmbH, priority 1991, dated 1995).
